Test results from ChEMBL document CHEMBL4342436, “Artemisia: a promising plant for the treatment of cancer” (Bioorg Med Chem, 2020).
Converted amounts (≈) assume the structure as drawn. One block for each compound: values may come before it.

What was measured:
SW-620 = assay: Antitumour activity against human SW620 cells xenografted in mouse assessed as inhibition of tumour growth at 60 mg/kg relative to control; format: functional; details: read-out: TGI
[1] = Cytotoxicity against mouse S17 cells after 72 hrs by MTT assay; format: functional, cell-based; details: S17, 72 h
SH-SY5Y = assay: Cytotoxicity against human SH-SY5Y cells after 72 hrs by MTT assay; format: functional, cell-based
HepG2 = assay: Cytotoxicity against human HepG2 cells after 72 hrs by MTT assay; format: functional, cell-based; details: HepG2, 72 h
CFPAC-1 [2] = assay: Antitumour activity against human CFPAC-1 cells xenografted in ip dosed nude BALB/c mouse assessed as tumor weight for 18 days; format: functional
CFPAC-1 [3] = assay: Cytotoxicity against human CFPAC-1 cells assessed as cell viability after 24 hrs by MTT assay relative to control; format: functional
PANC-1 [4] = assay: Cytotoxicity against human PANC1 cells assessed as cell viability after 24 hrs by MTT assay relative to control; format: functional
PANC-1 [5] = assay: Antitumour activity against human PANC1 cells xenografted in ip dosed nude BALB/c mouse assessed as tumor weight for 18 days; format: functional
HeLa [6] = assay: Cytotoxicity against human HeLa cells assessed as reduction in cell viability incubated for 48 hrs by MTT assay; format: functional, cell-based
MCF7 [7] = assay: Cytotoxicity against human MCF7 cells assessed as reduction in cell viability incubated for 48 hrs by MTT assay; format: functional, cell-based; details: MCF7, 48 h
HeLa [8] = assay: Cytotoxicity against human HeLa cells after 48 hrs by MTT assay; format: functional, cell-based
U-937 = assay: Cytotoxicity against human U937 cells after 48 hrs by MTT assay; format: functional, cell-based; details: U-937, 48 h
A549 [9] = assay: Cytotoxicity against human A549 cells after 48 hrs by MTT assay; format: functional, cell-based; details: A549, 48 h
HL-60 = assay: Antiproliferative activity against human HL60 cells assessed as reduction in cell viability after 3 days by XTT assay; format: functional, cell-based; details: HL-60, 72 h
HT-29 [10] = assay: Cytotoxicity against human HT-29 cells assessed as reduction in cell viability after 48 hrs by MTT assay; format: functional, cell-based; details: HT-29, 48 h
A549 [11] = assay: Cytotoxicity against human A549 cells assessed as reduction in cell viability after 48 hrs by MTT assay; format: functional, cell-based; details: A549, 48 h
L1210 = assay: Cytotoxicity against mouse L1210 cells assessed as reduction in cell viability after 48 hrs by MTT assay; format: functional, cell-based; details: L1210, 48 h
P388 [12] = assay: Cytotoxicity against mouse P388 cells assessed as reduction in cell viability after 48 hrs by MTT assay; format: functional, cell-based; details: P388, 48 h
KB = assay: Cytotoxicity against human KB cells; format: functional; details: read-out: ED50 (the source's name)
HT-29 [13] = assay: Cytotoxicity against human HT-29 cells; format: functional; details: read-out: ED50 (the source's name)
MCF7 [14] = assay: Cytotoxicity against human MCF7 cells; format: functional; details: read-out: ED50 (the source's name)
P388 [15] = assay: Cytotoxicity against mouse P388 cells; format: functional; details: read-out: ED50 (the source's name)
A549 [16] = assay: Cytotoxicity against human A549 cells by MTT assay; format: functional, cell-based
Bel-7402 = assay: Cytotoxicity against human Bel7402 cells by MTT assay; format: functional, cell-based
A549 [17] = assay: Cytotoxicity against human A549 cells by SRB assay; format: functional, cell-based
SK-OV-3 = assay: Cytotoxicity against human SKOV3 cells by SRB assay; format: functional, cell-based
HCT-15 = assay: Cytotoxicity against human HCT15 cells by SRB assay; format: functional, cell-based
SK-MEL-2 = assay: Cytotoxicity against human SK-MEL-2 cells by SRB assay; format: functional, cell-based
XF498 = assay: Cytotoxicity against human XF498 cells by SRB assay; format: functional, cell-based
BHY = assay: Antiproliferative activity against human BHY cells assessed as reduction in cell viability after 48 hrs by MTT assay; format: functional, cell-based
MCF7 [18] = assay: Antiproliferative activity against human MCF7 cells assessed as reduction in cell viability after 48 hrs by MTT assay; format: functional, cell-based; details: MCF7, 48 h
A549 [19] = assay: Antiproliferative activity against human A549 cells assessed as reduction in cell viability after 48 hrs by MTT assay; format: functional, cell-based; details: A549, 48 h
COLO 205 = assay: Antiproliferative activity against human COLO205 cells assessed as reduction in cell viability after 48 hrs by MTT assay; format: functional, cell-based; details: COLO 205, 48 h
MIA PaCa-2 = assay: Antiproliferative activity against human MIAPaCa2 cells assessed as reduction in cell viability after 48 hrs by MTT assay; format: functional, cell-based; details: MIA PaCa-2, 48 h
A-431 = assay: Cytotoxicity against human A431 cells after 72 hrs by MTT assay; format: functional, cell-based; details: A-431, 72 h
MCF7 [20] = assay: Cytotoxicity against human MCF7 cells after 72 hrs by MTT assay; format: functional, cell-based; details: MCF7, 72 h
A2780 = assay: Cytotoxicity against human A2780 cells after 72 hrs by MTT assay; format: functional, cell-based; details: A2780, 72 h
HeLa [21] = assay: Cytotoxicity against human HeLa cells after 72 hrs by MTT assay; format: functional, cell-based
[22] = Antioxidant activity assessed as ONOO scavenging activity; format: functional
[23] = Cytotoxicity against human YD-10B cells assessed as reduction in cell viability after 48 hr by MTT asssay; format: functional, cell-based

SMILES: COc1ccc(-c2cc(=O)c3c(O)c(O)c(OC)cc3o2)cc1OC
inhibition in vivo at 60 mg/kg (SW-620): 44.6%

SMILES: CC1=CCC2[C@@H]1[C@H]1OC(=O)[C@@H](C)[C@@H]1C[C@]1(C)O[C@H]21 (stereo partly drawn)
IC50 [1]: 229 to 233 µM
IC50 (SH-SY5Y): 229 to 233 µM
IC50 (HepG2): 229 to 233 µM

SMILES: CC(C)[C@]12O[C@H]1[C@@H]1O[C@]13[C@]1(O[C@H]1C[C@H]1C4=C(CC[C@@]13C)C(=O)OC4)[C@@H]2O [TRIPTOLIDE]
Activity (CFPAC-1 [2]): <0.4 g
Activity (CFPAC-1 [3]): <10%
Activity (PANC-1 [4]): <10%
Activity (PANC-1 [5]): <0.4 g

SMILES: COc1ccc(-c2cc(=O)c3c(O)c(OC)c(OC)cc3o2)cc1O [EUPATORIN]
IC50 (HeLa [6]): 8.1 to 63.2 µM
IC50 (MCF7 [7]): 10.3 to 91.9 µM

SMILES: C=C1C(=O)O[C@H]2[C@H]1[C@@H](OC(=O)C(C)C)CC(C)=C1C[C@@H]3O[C@]3(C)[C@@H]12
IC50 (HeLa [8]): 16 to 43.5 µg/mL (≈ 48.1 to 131 µM)
IC50 (U-937): 16 to 43.5 µg/mL (≈ 48.1 to 131 µM)
IC50 (A549 [9]): 16 to 43.5 µg/mL (≈ 48.1 to 131 µM)

IC50 (HL-60): 1.1 to 40.7 µg/mL (≈ 7.13 to 264 µM)
SMILES: CC#CC#CCc1ccccc1

SMILES: C[C@H]1[C@@H](O[C@@H](C#N)c2ccc(Br)cc2)O[C@@H]2O[C@@]3(C)CC[C@H]4[C@H](C)CC[C@@H]1[C@@]24OO3
IC50 (HT-29 [10]): 10 to 490 nM
IC50 (A549 [11]): 10 to 490 nM
IC50 (L1210): 10 to 490 nM
IC50 (P388 [12]): 10 to 490 nM

SMILES: C=C1C(=O)O[C@@H]2/C=C(\C)[C@@H](OC(=O)[C@@H](C)CC)C/C=C(\C)CC[C@@H]12
IC50 (HeLa [8]): 16 to 43.5 µg/mL (≈ 48.1 to 131 µM)
IC50 (U-937): 16 to 43.5 µg/mL (≈ 48.1 to 131 µM)
IC50 (A549 [9]): 16 to 43.5 µg/mL (≈ 48.1 to 131 µM)

SMILES: COc1cc(-c2cc(=O)c3c(O)c(O)c(OC)cc3o2)ccc1O
inhibition in vivo at 60 mg/kg (SW-620): 14.6%

SMILES: COc1ccc(-c2oc3cc(OC)c(OC)c(O)c3c(=O)c2O)cc1OC
EC50 (KB): 1.25 to 9.62 µg/mL (≈ 3.34 to 25.7 µM)
EC50 (HT-29 [13]): 1.25 to 9.62 µg/mL (≈ 3.34 to 25.7 µM)
EC50 (MCF7 [14]): 1.25 to 9.62 µg/mL (≈ 3.34 to 25.7 µM)
EC50 (P388 [15]): 1.25 to 9.62 µg/mL (≈ 3.34 to 25.7 µM)

SMILES: C=C1C(=O)O[C@H]2[C@H]1[C@@H](OC(C)=O)CC(=C)[C@]1(O)C[C@H](Cl)[C@@](C)(O)[C@H]21
IC50 (A549 [16]): 3.3 to 6 µM
IC50 (Bel-7402): 3.3 to 6 µM

SMILES: CC(C)=CCC[C@H](C)[C@H]1C[C@@H]2OO[C@H]1C=C2C
IC50 (A549 [17]): 0.1 to 0.87 µg/mL (≈ 0.423 to 3.68 µM)
IC50 (SK-OV-3): 0.1 to 0.87 µg/mL (≈ 0.423 to 3.68 µM)
IC50 (HCT-15): 0.1 to 0.87 µg/mL (≈ 0.423 to 3.68 µM)
IC50 (SK-MEL-2): 0.1 to 0.87 µg/mL (≈ 0.423 to 3.68 µM)
IC50 (XF498): 0.1 to 0.87 µg/mL (≈ 0.423 to 3.68 µM)

IC50 (MCF7 [18]): 25.2 to 88.1 µM
IC50 (A549 [19]): 25.2 to 88.1 µM
IC50 (COLO 205): 25.2 to 88.1 µM
IC50 (MIA PaCa-2): 25.2 to 88.1 µM
SMILES: C=C(C)[C@@H]1CC[C@]2(C)CC[C@]3(C)[C@H](CC[C@@H]4[C@@]5(C)CC[C@H](O)C(C)(C)[C@@H]5CC[C@]43C)[C@@H]12 [LUPEOL]
IC50 (BHY): 25.2 to 88.1 µM

SMILES: C=C1C(=O)O[C@H]2[C@H]1CC[C@@](C)(O)[C@]13O[C@H]1[C@H](Cl)[C@@](C)(O)[C@H]23
IC50 (A-431): 33 to 75 µg/mL (≈ 105 to 238 µM)
IC50 (A549 [16]): 3.3 to 6 µM
IC50 (MCF7 [20]): 33 to 75 µg/mL (≈ 105 to 238 µM)
IC50 (A2780): 33 to 75 µg/mL (≈ 105 to 238 µM)
IC50 (Bel-7402): 3.3 to 6 µM
IC50 (HeLa [21]): 33 to 75 µg/mL (≈ 105 to 238 µM)

IC50 [22]: 520 nM
SMILES: O=C(/C=C/c1ccc(O)c(O)c1)O[C@@H]1C[C@](O)(C(=O)O)C[C@@H](O)[C@H]1O [CHLOROGENIC ACID]

SMILES: CC1=CC(=O)C2=C(C)CC[C@@H]3[C@H](OC(=O)[C@H]3C)[C@@H]12 [DESACETOXYMATRICARIN]
IC50 (A549 [17]): 0.4 to 26.8 µg/mL (≈ 1.62 to 109 µM)
IC50 (SK-OV-3): 0.4 to 26.8 µg/mL (≈ 1.62 to 109 µM)
IC50 (HCT-15): 0.4 to 26.8 µg/mL (≈ 1.62 to 109 µM)
IC50 (SK-MEL-2): 0.4 to 26.8 µg/mL (≈ 1.62 to 109 µM)
IC50 (XF498): 0.4 to 26.8 µg/mL (≈ 1.62 to 109 µM)

SMILES: COc1cc(O)c2c(=O)c(OC)c(-c3ccc(O)cc3)oc2c1 [KUMATAKENIN]
IC50 (HeLa [6]): 8.1 to 63.2 µM
IC50 (MCF7 [7]): 10.3 to 91.9 µM

SMILES: C[C@H]1[C@@H](CCNC(=O)CC[C@H](NC(=O)CC[C@H]2O[C@@H]3O[C@@]4(C)CC[C@H]5[C@H](C)CC[C@@H]([C@H]2C)[C@@]35OO4)C(=O)NCC[C@H]2O[C@@H]3O[C@@]4(C)CC[C@H]5[C@H](C)CC[C@@H]([C@H]2C)[C@@]35OO4)O[C@@H]2O[C@@]3(C)CC[C@H]4[C@H](C)CC[C@@H]1[C@@]24OO3
IC50 [23]: 6 µM

SMILES: COc1cc2ccc(=O)oc2c(OC)c1O
IC50 (A549 [17]): 0.4 to 26.8 µg/mL (≈ 1.8 to 121 µM)
IC50 (SK-OV-3): 0.4 to 26.8 µg/mL (≈ 1.8 to 121 µM)
IC50 (HCT-15): 0.4 to 26.8 µg/mL (≈ 1.8 to 121 µM)
IC50 (SK-MEL-2): 0.4 to 26.8 µg/mL (≈ 1.8 to 121 µM)
IC50 (XF498): 0.4 to 26.8 µg/mL (≈ 1.8 to 121 µM)
